Experimental data reported in patent US20240082282A1 (priority 2020, published 2024).
Converted amounts (≈) assume the structure as drawn.

Experiments:
[1] = test system: Fusobacterium nucleatum KLE 2428; format: cell-based; conditions: KLE2428; Fusobacterium nucleatum KLE 2428, anaerobic, stool isolate; read-out: Minimum inhibitory concentration (MIC)
[2] = test system: Clostridium tertium KLE 2303; format: cell-based; conditions: KLE2303; Clostridium tertium KLE 2303, anaerobic, stool isolate; read-out: Minimum inhibitory concentration (MIC)
[3] = test system: Clostridium perfringens KLE 2326; assay: microbe, parasite or virus in culture; format: cell-based; conditions: Clostridium perfringens, KLE2326, read-out: Minimum inhibitory concentration (MIC)
[4] = test system: Staphylococcus epidermidis KLE 2378; format: cell-based; conditions: KLE2378; Staphylococcus epidermidis KLE 2378, anaerobic, stool isolate; read-out: Minimum inhibitory concentration (MIC)
[5] = test system: Shigella sonnei ATCC 25931; format: cell-based; conditions: ATCC25931; Shigella sonnei ATCC 25931, anaerobic; read-out: Minimum inhibitory concentration (MIC)
[6] = test system: Pseudomonas aeruginosa PAO1; format: cell-based; conditions: Pseudomonas aeruginosa PAO1; read-out: Minimum inhibitory concentration (MIC)
[7] = test system: Salmonella typhimurium LT2 ATCC 19585; format: cell-based; conditions: Salmonella enterica; Salmonella typhimurium LT2 ATCC 19585, anaerobic; read-out: Minimum inhibitory concentration (MIC)
[8] = test system: Streptococcus salivarius KLE 2370; format: cell-based; conditions: KLE2370; Streptococcus salivarius KLE 2370, anaerobic, stool isolate; read-out: Minimum inhibitory concentration (MIC)
[9] = test system: Streptococcus parasanguinis KLE 2375; format: cell-based; conditions: KLE2375; Streptococcus parasanguinis KLE 2375, anaerobic, stool isolate; read-out: Minimum inhibitory concentration (MIC)
[10] = test system: Bifidobacterium longum ATCC BAA-999; format: cell-based; conditions: ATCCBAA999; Bifidobacterium longum ATCC BAA-999, anaerobic; read-out: Minimum inhibitory concentration (MIC)
[11] = test system: Bacteroides nordii KLE 2369; format: cell-based; conditions: KLE2369; Bacteroides nordii KLE 2369, anaerobic, stool isolate; read-out: Minimum inhibitory concentration (MIC)
[12] = test system: Bacteroides cellulosilyticus KLE 2342; format: cell-based; conditions: KLE2342; Bacteroides cellulosilyticus KLE 2342, anaerobic, stool isolate; read-out: Minimum inhibitory concentration (MIC)
[13] = test system: Bacteroides fragilis ATCC 25285; format: cell-based; conditions: ATCC25285; Bacteroides fragilis ATCC 25285, anaerobic; read-out: Minimum inhibitory concentration (MIC)
[14] = test system: Blautia producta ATCC 27340; format: cell-based; conditions: ATCC27340; Blautia producta ATCC 27340, anaerobic; read-out: Minimum inhibitory concentration (MIC)
[15] = test system: Bacteroides eggerthii KLE 2382; format: cell-based; conditions: KLE2382; Bacteroides eggerthii KLE 2382, anaerobic, stool isolate; read-out: Minimum inhibitory concentration (MIC)
[16] = test system: Enterococcus faecalis KLE 2341; format: cell-based; conditions: KLE2341; Enterococcus faecalis KLE 2341, anaerobic, stool isolate; read-out: Minimum inhibitory concentration (MIC)
[17] = test system: Bacteroides xylanisolvens KLE 2305; format: cell-based; conditions: KLE2305; Bacteroides xylanisolvens KLE 2305, anaerobic, stool isolate; read-out: Minimum inhibitory concentration (MIC)
[18] = test system: Leptospira biflexa ATCC 23582; conditions: Leptospira biflexa, ATCC23582, read-out: Minimum inhibitory concentration (MIC)
[19] = test system: Borrelia burgdorferi BbP1286; assay: microbe, parasite or virus in culture; conditions: Borreliella burgdorferi, BBP1286, read-out: Minimum inhibitory concentration (MIC)
[20] = test system: Borreliella burgdorferi 297; conditions: Borreliella burgdorferi, 297, read-out: Minimum inhibitory concentration (MIC)
[21] = test system: Borreliella burgdorferi B31; conditions: Borreliella burgdorferi, B31, read-out: Minimum inhibitory concentration (MIC)
[22] = test system: Borrelia afzelii; conditions: Borreliella afzelii, read-out: Minimum inhibitory concentration (MIC)
[23] = test system: Borrelia bavariensis; conditions: Borreliella bavariensis, read-out: Minimum inhibitory concentration (MIC)
[24] = test system: Borrelia garinii; conditions: Borreliella garinii, read-out: Minimum inhibitory concentration (MIC)
[25] = test system: Borrelia turcica DSM 16138; conditions: Borrelia turcica, DSM16138, read-out: Minimum inhibitory concentration (MIC)
[26] = test system: murine gut microbiome; assay: Impact on the murine fecal microbiome (16S rRNA sequencing); conditions: mouse, in vivo
Description: Stool samples were collected and V4 region of the 16s rRNA gene was amplified using primers and sequenced (IonTorrent).
Fecal pellets were collected 3 days before and 3 days after antibiotic treatment and were stored at −80° C. in PBS. Sequencing of a stool pellet from each mouse from before and after treatment was performed by MR DNA (www.mrdnalab.com, Shallowater, TX, USA) on an Ion Torrent PGM. Using PCR primers, the V4 variable region of the 16SrRNA gene was amplified in a single-step 30 cycle PCR with the HotStarTaq Plus Master Mix Kit (Qiagen, USA). The following conditions were used: 94° C. for 3 minutes and 30 cycles of 94° C. for 30 seconds, 53° C. for 40 seconds and 72° C. for 1 minute, then a final elongation step for 5 minutes at 72° C. […] Barcodes and primers and then sequences<150 bp were removed. Further, sequences with homopolymer runs exceeding 6 bp and sequences with ambiguous calls were removed. The sequences were then denoised, OTUs were generated, and chimeras were removed; OTUs were clustered at 3% divergence. Taxonomic classification was performed using BLASTn against a database derived from RDPII available at www.rdp.cme.msu.edu) and NCBI (www.ncbi.nlm.nih.gov). The change in relative abundance of the most abundant genera from before to after treatment of each individual mouse was reported. Further, raw sequences were processed in Qiita (Gonzalez, A., et al. (2018). Nat Methods 15, 796-798; the contents of which are herein incorporated by reference in its entirety) and were demultiplexed, trimmed to 100 bp, and closed reference OTU picking was performed against the Greengenes database at 97% similarity (McDonald, D. et al. (2012). ISME J 6, 610-618; the contents of which are herein incorporated by reference in its entirety). The alpha diversity based on the Simpson index was calculated in Qiita. The change in the Simpson index was calculated for the fecal microbiome of each mouse from before to after treatment. Statistical significance was calculated using a one-way ANOVA with Tukey's multiple comparisons test (p<0.05).

Compound | MIC [1] [µg/mL] | MIC [2] [µg/mL] | MIC [3] [µg/mL] | MIC [4] [µg/mL] | MIC [5] [µg/mL] | MIC [6] [µg/mL] | MIC [7] [µg/mL] | MIC [8] [µg/mL] | MIC [9] [µg/mL] | MIC [10] [µg/mL] | MIC [11] [µg/mL] | MIC [12] [µg/mL] | MIC [13] [µg/mL] | MIC [14] [µg/mL] | MIC [15] [µg/mL] | MIC [16] [µg/mL] | MIC [17] [µg/mL] | MIC [18] [µg/mL] | MIC [19] [µg/mL] | MIC [20] [µg/mL] | other results
C[C@H]1c2cccc(O)c2C(=O)C2=C(O)[C@]3(O)C(=O)C(C(N)=O)=C(O)[C@@H](N(C)C)[C@@H]3[C@@H](O)[C@@H]21 [Doxycycline] | 0.12 (≈ 0.27 µM) | 0.03 (≈ 0.0675 µM) | 0.25 (≈ 0.563 µM) | 0.5 (≈ 1.13 µM) | 4 (≈ 9 µM) | 32 (≈ 72 µM) | 8 (≈ 18 µM) | 0.12 (≈ 0.27 µM) | 4 (≈ 9 µM) | 0.25 (≈ 0.563 µM) | 0.25 (≈ 0.563 µM) | 2 (≈ 4.5 µM) | 0.5 (≈ 1.13 µM) | 2 (≈ 4.5 µM) | 0.01 (≈ 0.0225 µM) | 0.5 (≈ 1.13 µM) | 0.5 (≈ 1.13 µM) | 2 (≈ 4.5 µM) | 0.25 (≈ 0.563 µM) | 0.25 (≈ 0.563 µM) | MIC [21]: 0.25 µg/mL (≈ 0.563 µM); MIC [22]: 0.12 µg/mL (≈ 0.27 µM); MIC [23]: 0.12 µg/mL (≈ 0.27 µM); MIC [24]: 0.12 µg/mL (≈ 0.27 µM); MIC [25]: 0.25 µg/mL (≈ 0.563 µM)
CC1(C)S[C@@H]2[C@H](NC(=O)[C@H](N)c3ccc(O)cc3)C(=O)N2[C@H]1C(=O)O [Amoxicillin] | 2 (≈ 5.47 µM) | 32 (≈ 87.6 µM) | 0.12 (≈ 0.328 µM) | > 128 | 2 (≈ 5.47 µM) | > 128 | 16 (≈ 43.8 µM) | 0.06 (≈ 0.164 µM) | 64 (≈ 175 µM) | 1 (≈ 2.74 µM) | 32 (≈ 87.6 µM) | 128 (≈ 350 µM) | 16 (≈ 43.8 µM) | 1 (≈ 2.74 µM) | 0.5 (≈ 1.37 µM) | 0.5 (≈ 1.37 µM) | 32 (≈ 87.6 µM) | 8 (≈ 21.9 µM) | 0.12 (≈ 0.328 µM) | 0.25 (≈ 0.684 µM) | Bloom of Bacteroides [26]: produced a bloom of Bacteroides; Changes in the composition of the microbiota [26]: significant changes; Mice with Enterococcaceae blooms [26]: 4/5; MIC [21]: 0.25 µg/mL (≈ 0.684 µM); MIC [22]: 0.01 µg/mL (≈ 0.0274 µM); MIC [23]: 0.06 µg/mL (≈ 0.164 µM); MIC [24]: 0.12 µg/mL (≈ 0.328 µM); MIC [25]: 0.25 µg/mL (≈ 0.684 µM)
